Like-named read-outs stand apart in the source and are kept apart here.
Tests used:
CMV promoter [1] = assay: Transient transfection of HeLa cells with CMV-BLA (pCMV-BLA) reporter plasmid, Bla staining (blue cells); assay type: cell-based, human; conditions: for Bla staining at 60 min. / fold-ind. at 60 min. (Bla): Table 6; for fold-ind. at 60 min. (Bla): vs DMSO
Protocol: (§1) The p21m-BLA reporter plasmid was tested in transient transfection experiments of HeLa cells to evaluate the responsiveness of the minimal p21 promoter and the Bla reporter system to known HDAC inhibitors. In the first two transfection experiments, HeLa cells were transfected with 1 or 2 μg of Bla reporter plasmid containing either p21 minimal promoter (p21m-BLA) or CMV promoter (CMV-BLA) and 0.1 μg of pCMV-Luc or pRSV-Luc control plasmids. Different DNA-FUGENE transfection reagent ratios were tested (FUGENE is available from Roche Applied Science, Indianapolis, Ind.). […] Data are summarized below in Tables 1 and 2.
The percentage of β-lactamase-positive cells increased with time independent of the presence of HDAC inhibitors and was constantly higher with p21m-BLA than with pCMV-BLA.
In light of the above, the lack of apparent Bla activation in the above transfection experiments might have been due to the high sensitivity of the method. Therefore, transient transfections in which an accurate titration of the reporter plasmid DNA were performed. The titration of the reporter plasmid included using amounts lower than was used above. […] The transient transfections were repeated and the result confirmed (Table 7).

endogenous p21 = assay: Induction of endogenous p21 in HeLa cells, immunoblot; assay type: cell-based, human; conditions: 13 hour treatment, immunoblot densitometry, read-out: Endogenous p2 EC50
Protocol: Induction of endogenous p21 and acetylation of core histones (inhibition of HDAC activity) was as follows. Dose-response experiments were performed in HeLa cells with different classes of known HDAC inhibitors. […] An α-tubulin-specific antibody (Sigma, St. Louis, Mo.; catalog number: T9026) was used as an internal standard. Quantitative data were obtained by densitometric analysis of X-ray films and were normalized for the internal standard values.

clone 1.17 cells = assay: Growth inhibition, CYTOSTAR 14C-thymidine uptake; assay type: cell-based; conditions: Homo sapiens, 48 h, read-out: ^14C-thymidine EC50
Protocol: Cells were seeded in a CYTOSTAR-T plate at about 7000 to 10000 cells per well in 100 μL of complete DMEM and incubated 4 hours at 37° C., 5% CO2. Next, 25 μL per well of HDAC inhibitor or DMSO (vehicle control) 5× solutions in complete DMEM was added to the wells along with 5 μL per well of ^14C-thymidine diluted 1:3 in H2O (1.65 μL of thymidine per well, 55 mCi/mmol; 225 μCi/mg; 50 μCi/mL (10 μM final concentration) and incubated at 37° C., 5% CO2. Incorporation of ^14C-thymidine was monitored after 24, 48, and 72 hours by reading the plate in a Packard Instruments TOP-COUNT (CYTOSTAR ^14C method).

CMV promoter [2] = assay: Luc activity of co-transfected pCMV-Luc control plasmid in HeLa cells; assay type: cell-based, human; conditions: 400 nM, 12 hours
Protocol: as §1

RSV promoter = assay: Luc activity of co-transfected pRSV-Luc control plasmid in HeLa cells; assay type: cell-based, human; conditions: Table 2, 400 nM, 12 hours
Protocol: as §1

HeLa cells = conditions: saturating amounts, after 48 hours; cited from earlier work
[3] = Table 3, 2 μg pCMV-BLA + 0.1 μg pCMV-Luc, 12 hr treatment, TSA 300 nM, Apicidin 1 μM
[4] = Table 3, 2 μg pCMV-BLA + 0.1 μg pCMV-Luc, 24 hr treatment, TSA 300 nM, Apicidin 1 μM
[5] = Apicidin 1 μM, pCMV-BLA 0.02 μg DNA
[6] = Apicidin 1 μM, pCMV-BLA 0.05 μg DNA
[7] = Apicidin 1 μM, pCMV-BLA 0.1 μg DNA
[8] = Apicidin 1 μM, pCMV-BLA 0.2 μg DNA
[9] = Apicidin 1 μM, pCMV-BLA 0.5 μg DNA

## CCC(=O)CCCCC[C@@H]1NC(=O)[C@H]2CCCCN2C(=O)[C@H]([C@@H](C)CC)NC(=O)[C@H](Cc2cn(OC)c3ccccc23)NC1=O [Apicidin]
CMV promoter [1]; Table 3, 2 μg pCMV-BLA + 0.1 μg pCMV-Luc, 6 hr treatment, TSA 300 nM, Apicidin 1 μM
  % Blue cells: 4%
CMV promoter [1]; [3]
  % Blue cells: 3%
CMV promoter [1]; [4]
  % Blue cells: 10%
CMV promoter [1]; Apicidin 1 μM, pCMV-BLA 0 μg DNA
  Bla staining at 60 min.: 0%
CMV promoter [1]; [5]
  Bla staining at 60 min.: 5%
  fold-ind. at 60 min. (Bla): 1 fold
CMV promoter [1]; [6]
  Bla staining at 60 min.: 5-10%
  fold-ind. at 60 min. (Bla): 1 fold
CMV promoter [1]; [7]
  Bla staining at 60 min.: 10-15%
  fold-ind. at 60 min. (Bla): 1 fold
CMV promoter [1]; [8]
  Bla staining at 60 min.: 20%
  fold-ind. at 60 min. (Bla): 1 fold
CMV promoter [1]; [9]
  Bla staining at 60 min.: 40%
  fold-ind. at 60 min. (Bla): 1 fold
Endogenous p21; Homo sapiens
  EC50: 70 nM
Clone 1.17 cells
  EC50: 410 nM

## CC(/C=C/C(=O)NO)=C\[C@@H](C)C(=O)c1ccc(N(C)C)cc1 [TSA, Trichostatin A]
CMV promoter [1]; Table 1, 400 nM, 12 hours induction, 1 μg CMV-BLA + 3 μL F
  % Blue cells: 5%
CMV promoter [1]; Table 1, 400 nM, 12 hours induction, 2 μg CMV-BLA + 6 μL F
  % Blue cells: 15-20%
CMV promoter [1]; Table 2, 400 nM, 12 hours induction, 1 μg CMV-BLA + 3 μL F
  % Blue cells: 5%
CMV promoter [1]; Table 2, 400 nM, 12 hours induction, 2 μg CMV-BLA + 6 μL F
  % Blue cells: 5%
CMV promoter [1]; Table 2, 400 nM, 12 hours, 1 μg CMV-BLA + 3 μL F + CMV-luc
  % Blue cells: 5%
CMV promoter [1]; Table 2, 400 nM, 12 hours, 1 μg CMV-BLA + 3 μL F + RSV-luc
  % Blue cells: 7%
CMV promoter [1]; Table 2, 400 nM, 12 hours, 2 μg CMV-BLA + 6 μL F + CMV-luc
  % Blue cells: 7%
CMV promoter [1]; Table 2, 400 nM, 12 hours, 2 μg CMV-BLA + 6 μL F + RSV-luc
  % Blue cells: 7%
CMV promoter [1]; [3]
  % Blue cells: 4-5%
CMV promoter [1]; [4]
  % Blue cells: 15%
CMV promoter [2]; Table 1, 1 μg CMV-BLA + 3 μL F, control plasmid not given
  RLU/mg: 8986 RLU/mg
CMV promoter [2]; Table 1, 1 μg p21m-BLA + 3 μL F, control plasmid pCMV-Luc or pRSV-Luc, not specified
  RLU/mg: 52035 RLU/mg
CMV promoter [2]; Table 1, 1 μg p21m-BLA + 5 μL F, control plasmid not given
  RLU/mg: 29022.4 RLU/mg
CMV promoter [2]; Table 2, 2 μg CMV-BLA + 6 μL F + CMV-luc
  RLU/mg: 13085.6 RLU/mg
CMV promoter [2]; Table 2, 2 μg p21BLA + 6 μL F + CMV-luc
  RLU/mg: 105942 RLU/mg
RSV promoter; 1 μg CMV-BLA + 3 μL F + RSV-luc
  RLU/mg: 7964.46 RLU/mg
RSV promoter; 1 μg p21m-BLA + 3 μL F + RSV-luc
  RLU/mg: 24437.8 RLU/mg
RSV promoter; 2 μg CMV-BLA + 6 μL F + RSV-luc
  RLU/mg: 4972 RLU/mg
RSV promoter; 2 μg p21m-BLA + 6 μL F + RSV-luc
  RLU/mg: 29989.4 RLU/mg
Endogenous p21
  EC50: 190 nM
HeLa cells
  remission from cell cycle arrest: complete remission from cell cycle arrest

— US20080057529A1, “Method for Identifying Histone Deacetylase Inhibitors” (priority 2003, published 2008)
